pEC50: −log10 of the molar value. “Also recorded” adds a separate entry of the source.
Tests used:
[1] = Compound I monotherapy safety in healthy subjects; type: in vivo, human; conditions: multiple doses up to 400 mg qd for 10 days
[2] = Preclinical reproductive toxicology studies; type: in vivo
F508del-CFTR [3] = target: T1, F508del-CFTR (Homo sapiens, UniProt P13569, DEL508-508); assay: Membrane potential optical assay (F508del-CFTR correction); type: cell-based; parameters: expressed in transfected cells; conditions: NIH3T3 mouse fibroblasts stably expressing F508del, 18-24 hours
Description: Membrane Potential Optical Methods for Assaying Properties of F508del-CFTR Modulators
An optical assay was employed to measure changes in membrane potential to determine the CFTR modulator properties of compounds. The assay utilized fluorescent voltage sensing dyes to measure changes in membrane potential using a fluorescent plate reader (e.g., FLIPR III, Molecular Devices, Inc.) as a readout for increase in functional F508del in NIH 3T3 cells. The driving force for the response was the creation of a chloride ion gradient in conjunction with channel activation and concurrent with compound treatment by a single liquid addition step after the cells had previously been loaded with a voltage sensing dye.
NIH3T3 mouse fibroblasts stably expressing F508del were used for optical measurements of membrane potential. The cells were maintained at 37° C. in 5% CO2 and 90% humidity in Dulbecco's modified Eagle's medium supplemented with 2 mM glutamine, 10% fetal bovine serum, 1×NEAA, β-ME, 1× pen/strep, and 25 mM HEPES in 175 cm^2 culture flasks. […] The cells were then activated and treated with Compound I. After 18-24 hours, fluorescence from the voltage sensing dye in the cells was measured to assess changes in the membrane potential as a read out for increase in functional F508del CFTR in the NIH3T3 cells.

F508del-CFTR [4] = target: T1, F508del-CFTR; assay: Ussing chamber assay, chloride transport in F508del/F508del-HBE cells; type: cell-based; parameters: CF-HBE cells were isolated from patients homozygous for F508del (F508del/F508del-HBE); endogenous in cells; host or cells: primary F508del/F508del-HBE cells from bronchial tissue of CF patients
Method: Ussing chamber experiments were performed on polarized airway epithelial cells expressing F508del to further characterize the F508del modulators identified in the optical assay above. Non-CF and CF airway epithelia were isolated from bronchial tissue, cultured using methods well known in the art, and plated onto Costar® Snapwell™ filters that were precoated with NIH3T3-conditioned media. After four days the apical media was removed and the cells were grown at an air liquid interface for >14 days prior to use. […] CF-HBE cells were isolated from patients homozygous for F508del (F508del/F508del-HBE) or heterozygous for F508del and a mutation associated with minimal CF transmembrane conductance regulator (CFTR) function (MF) that is not expected to respond to Compound II, Compound III, Compound III-d, and the combination of Compound II and III, or Compound II and III-d (F508del/MF-HBE).
HBE cells grown on Costar® Snapwell™ cell culture inserts were mounted in an Ussing chamber (Physiologic Instruments, Inc., San Diego, Calif.), and the transepithelial resistance and short-circuit current in the presence of a basolateral to apical Cl^− gradient (ISC) were measured using a voltage-clamp system (Department of Bioengineering, University of Iowa, Iowa). Briefly, HBE cells were examined under voltage-clamp recording conditions (Vhold=0 mV) at 37° C. The basolateral solution contained (in mM) 145 NaCl, 0.83 K2HPO4, 3.3 KH2PO4, 1.2 MgCl2, 1.2 CaCl2, 10 Glucose, 10 HEPES (pH adjusted to 7.35 with NaOH) and the apical solution contained (in mM) 145 NaGluconate, 1.2 MgCl2, 1.2 CaCl2, 10 glucose, 10 HEPES (pH adjusted to 7.35 with NaOH).
Ussing Chamber Assay Procedure
A basolateral to apical membrane Cl^− concentration gradient was set up as follows. Normal Ringer's solution was used on the basolateral membrane, whereas apical NaCl was replaced by equimolar sodium gluconate (titrated to pH 7.4 with NaOH) to give a large Cl^− concentration gradient across the epithelium. […] Chloride current was measured to assess the increase in functional CFTR in the cell membrane. […]

F508del-CFTR [5] = target: T1, F508del-CFTR; assay: F508del-CFTR processing and trafficking (170 to 180 kDa band) in F508del/F508del-HBE cells; type: cell-based; parameters: CF-HBE cells were isolated from patients homozygous for F508del (F508del/F508del-HBE); endogenous in cells; host or cells: primary F508del/F508del-HBE cells from bronchial tissue of CF patients
Description: The CFTR protein delivered to the cell surface by Compound I alone or in combination with Compound II (Compound I/Compound II) was potentiated by Compound III.

CFTR = target: T2, CFTR (Homo sapiens, UniProt P13569, DEL508-508); assay: CFTR chloride transport in human bronchial epithelial (HBE) cells in vitro (Example 7); type: cell-based
T2 construct: In human bronchial epithelial (HBE) cells studied in vitro; endogenous in cells; host or cells: human bronchial epithelial (HBE) cells
T2 sequence (P13569 with tags, fused parts or gaps DEL508-508): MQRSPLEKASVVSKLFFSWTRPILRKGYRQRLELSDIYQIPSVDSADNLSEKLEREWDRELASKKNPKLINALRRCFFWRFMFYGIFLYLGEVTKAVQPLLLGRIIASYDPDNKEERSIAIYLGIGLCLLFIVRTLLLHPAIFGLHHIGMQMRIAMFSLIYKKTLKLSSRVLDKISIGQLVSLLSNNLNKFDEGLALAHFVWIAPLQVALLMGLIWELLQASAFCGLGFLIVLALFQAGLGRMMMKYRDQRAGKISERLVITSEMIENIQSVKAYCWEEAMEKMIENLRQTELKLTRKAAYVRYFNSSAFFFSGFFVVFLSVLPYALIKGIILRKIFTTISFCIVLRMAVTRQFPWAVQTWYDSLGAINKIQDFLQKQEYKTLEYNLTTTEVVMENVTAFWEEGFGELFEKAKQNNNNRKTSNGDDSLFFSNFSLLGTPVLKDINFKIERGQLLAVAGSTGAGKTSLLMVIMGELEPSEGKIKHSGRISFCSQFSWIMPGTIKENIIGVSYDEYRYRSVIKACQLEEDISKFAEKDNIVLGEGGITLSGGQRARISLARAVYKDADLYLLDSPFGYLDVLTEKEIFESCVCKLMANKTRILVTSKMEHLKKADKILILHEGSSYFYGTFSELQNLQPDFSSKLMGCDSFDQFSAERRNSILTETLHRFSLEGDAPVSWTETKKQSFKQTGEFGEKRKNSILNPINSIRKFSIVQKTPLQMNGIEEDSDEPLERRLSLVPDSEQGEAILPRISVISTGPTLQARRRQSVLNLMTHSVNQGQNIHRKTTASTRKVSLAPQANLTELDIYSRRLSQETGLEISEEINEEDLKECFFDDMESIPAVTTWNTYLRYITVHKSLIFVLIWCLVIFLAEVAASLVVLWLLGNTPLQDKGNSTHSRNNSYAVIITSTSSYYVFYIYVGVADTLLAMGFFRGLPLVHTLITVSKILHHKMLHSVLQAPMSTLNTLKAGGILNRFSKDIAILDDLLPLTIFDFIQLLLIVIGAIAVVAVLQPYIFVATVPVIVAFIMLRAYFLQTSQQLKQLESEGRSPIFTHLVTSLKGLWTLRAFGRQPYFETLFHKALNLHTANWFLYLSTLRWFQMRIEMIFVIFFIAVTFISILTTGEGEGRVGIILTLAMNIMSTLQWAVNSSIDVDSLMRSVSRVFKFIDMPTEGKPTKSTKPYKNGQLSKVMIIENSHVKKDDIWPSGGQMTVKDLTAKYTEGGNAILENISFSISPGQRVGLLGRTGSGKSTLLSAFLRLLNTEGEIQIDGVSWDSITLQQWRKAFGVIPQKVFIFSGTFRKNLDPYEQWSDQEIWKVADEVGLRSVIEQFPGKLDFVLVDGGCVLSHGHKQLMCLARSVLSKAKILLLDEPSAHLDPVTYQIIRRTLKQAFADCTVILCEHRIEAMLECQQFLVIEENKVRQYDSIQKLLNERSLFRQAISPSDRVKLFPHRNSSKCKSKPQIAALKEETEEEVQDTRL

T1 sequence (P13569 with tags, fused parts or gaps DEL508-508): as above

Structure (SMILES): C[C@@H]1CN(c2nc(-n3ccc(OCCC4(C(F)(F)F)CC4)n3)ccc2C(=O)NS(=O)(=O)c2ccccc2)C(C)(C)C1 [Compound I, N-(benzenesulfonyl)-6-[3-[2-[1-(trifluoromethyl)cyclopropyl]ethoxy]pyrazol-1-yl]-2-[(4(S))-2,2,4-trimethylpyrrolidin-1-yl]pyridine-3-carboxamide]
- safety and tolerability [1]: safe and well tolerated
- reproductive toxicology findings [2]: no adverse findings of note
- pEC50 (F508del-CFTR [3]): > 5.52
- Emax (F508del-CFTR [3]; read-out: % Efficacy relative to Compound II): ≥ 100%
- chloride transport (F508del-CFTR [4]): enhanced chloride transport
- effect on chloride transport in relation to the effect of Compound II (F508del-CFTR [4]): additive to the effect of Compound II
- steady-state levels, fold of untreated levels (F508del-CFTR [5]; F508del/F508del-HBE cells, 16 to 24 hours, 1 μM Compound I alone): 6.5 fold
- processing and trafficking of F508del-CFTR (F508del-CFTR [5]; in vitro): improved the processing and trafficking of F508del-CFTR; also recorded: facilitates the processing and trafficking of F508del-CFTR

Structure (SMILES): CC(C)(C)c1cc(C(C)(C)C)c(NC(=O)c2c[nH]c3ccccc3c2=O)cc1O [Compound III, N-(5-hydroxy-2,4-di-tert-butyl-phenyl)-4-oxo-1H-quinoline-3-carboxamide, reference compound]
- potentiation of CFTR protein delivered to the cell surface by Compound I alone or with Compound II (CFTR): potentiated
- potentiation of F508del-CFTR delivered to the cell surface by Compound I alone or with Compound II (F508del-CFTR [4]): potentiated
